Results on 18 compounds are retold here after US12378208B2, “N-substituted oseltamivir derivatives with antimicrobial activity” (THE HONG KONG POLYTECHNIC UNIVERSITY, priority 2019, dated 2025).

One assay deals with NA from A/H3N2 (Influenza A virus, UniProt O91745). Description: biochemical. The class given is biochemical, seasonal A/H3N2.
The test system of assay [1] is influenza A virus A/OK/447/08 (H1N1). As to the kind of experiment: Plaque assay in MDCK cells. In kind it is cell-based. Particulars: for plaque count: two concentrations; for plaque size compared with 0.2 nM oseltamivir: both compounds at both concentrations vs 0.2 nM oseltamivir.
Assay [2] deals with influenza B virus (IBV) 12v28393. As to the kind of experiment: Plaque assay in MDCK cells. The class given is cell-based. Conditions: for plaque size: MDCK, day 3, vs DMSO vehicle, both concentrations.
The test system of a further assay is IBV 12v33261. As to the kind of experiment: Plaque assay in MDCK cells. The class given is cell-based, influenza B virus. Particulars: for plaque size: MDCK, day 3, vs DMSO vehicle, both concentrations.
The test system of a further assay is IBV 12v33280. Description: Plaque assay in MDCK cells. In kind it is cell-based, influenza B virus. Particulars: for plaque size: MDCK, day 3, vs DMSO vehicle, both concentrations.
The next assay has as its target neuraminidase (Influenza A virus, UniProt O91745). Conditions: previous studies (Ye et al., 2019); read-out: half maximal inhibitory concentration (IC50); cited from earlier work.
The mark [3] stands for this setting: 3.2 nM S22 vs 0.2 nM oseltamivir (p<0.01).

Chain of neuraminidase (O91745 whole entry): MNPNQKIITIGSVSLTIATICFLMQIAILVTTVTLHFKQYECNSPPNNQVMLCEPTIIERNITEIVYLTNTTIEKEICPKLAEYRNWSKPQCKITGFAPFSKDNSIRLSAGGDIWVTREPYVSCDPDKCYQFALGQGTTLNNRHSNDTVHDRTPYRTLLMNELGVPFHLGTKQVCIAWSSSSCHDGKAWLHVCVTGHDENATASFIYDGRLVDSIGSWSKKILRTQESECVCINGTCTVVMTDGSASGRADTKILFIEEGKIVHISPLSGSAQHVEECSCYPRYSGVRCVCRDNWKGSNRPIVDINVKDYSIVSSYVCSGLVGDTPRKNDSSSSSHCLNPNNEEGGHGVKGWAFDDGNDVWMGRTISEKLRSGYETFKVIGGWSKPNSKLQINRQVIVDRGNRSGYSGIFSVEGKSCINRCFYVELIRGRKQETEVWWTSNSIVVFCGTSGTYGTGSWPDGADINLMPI
Chain of NA from A/H3N2 (O91745 whole entry, looked up): as the sequence (O91745 whole entry) above

For `CCC(CC)O[C@@H]1C=C(C(=O)O)C[C@H](NCc2ccc(-c3c(C)noc3C)o2)[C@H]1NC(C)=O` [Compound S22, (3R,4R,5S)-4-acetamido-5-(((5-(3,5-dimethylisoxazol-4-yl)furan-2-yl)methyl)amino)-3-(pentan-3-yloxy)cyclohex-1-ene-1-carboxylic acid], the “% Inhibition (1 nM)” value on NA from A/H3N2 is recorded as 30.2 ± 1.5%. The IC50 was 1.63 ± 0.16 nM against NA from A/H3N2 (Table 2, Example 32) and 1.6 nM at neuraminidase. Also, in assay [1] ([…]), the plaque count result is listed as “not plaque count”. Moreover, the “plaque size compared with 0.2 nM oseltamivir” value in assay [1] is “equally well”; in assay [2] (setting [3]) it was “better inhibition effect”; with IBV 12v33261 (3.2 nM S22 vs 0.2 nM oseltamivir (p<0.05)), “better inhibition effect”; in the assay on IBV 12v33280 (1.6 nM S22 vs 0.2 nM oseltamivir (p<0.05)) it was “extra benefit”; with IBV 12v33280 (setting [3]) it was “better inhibition effect”. Moreover, the plaque size entry (in assay [2]; in the assay on IBV 12v33261; in the assay with IBV 12v33280) was “significantly reduce the plaque size” in each case. For the same compound, the “inhibition compared with 1.9 nM S7” value with IBV 12v33280 (1.6 nM S22 vs 1.9 nM S7 (p<0.05)) and in the assay on IBV 12v33280 (3.2 nM S22 vs 1.9 nM S7 (p<0.01)) was “better” in each case.
Regarding `CCC(CC)O[C@@H]1C=C(C(=O)O)C[C@H](NCc2noc(-c3ccco3)n2)[C@H]1NC(C)=O` [Compound S7, (3R,4R,5S)-4-acetamido-5-(((5-(furan-2-yl)-1,2,4-oxadiazol-3-yl)methyl)amino)-3-(pentan-3-yloxy)cyclohex-1-ene-1-carboxylic acid], at NA from A/H3N2, the “% Inhibition (1 nM)” value turned out to be 28.1 ± 1.7%. The IC50 at NA from A/H3N2 (Table 2, Example 32) was 1.92 ± 0.24 nM; at neuraminidase it was 1.9 nM. Moreover, the plaque count result in assay [1] ([…]) is “not plaque count”. In addition, the “plaque size compared with 0.2 nM oseltamivir” value in assay [1] is recorded as “equally well”. Moreover, in assay [2] (3.8 nM S7 vs 3.2 nM S22 (p<0.05)), the “inhibition compared with 3.2 nM S22” value was “extra benefit”. In addition, the plaque size entry (in assay [2]; in the assay on IBV 12v33261; with IBV 12v33280) was “significantly reduce the plaque size” each time.
With `CCC(CC)O[C@@H]1C=C(C(=O)O)C[C@H](NCc2noc(-c3cc(OC)c(OC)c(OC)c3)n2)[C@H]1NC(C)=O` [Compound S11, (3R,4R,5S)-4-acetamido-3-(pentan-3-yloxy)-5-(((5-(3,4,5-trimethoxyphenyl)-1,2,4-oxadiazol-3-yl)methyl)amino)cyclohex-1-ene-1-carboxylic acid], on NA from A/H3N2, the “% Inhibition (1 nM)” value came to 3.5 ± 3.1%.
Consider `CCC(CC)O[C@@H]1C=C(C(=O)O)C[C@H](NCc2noc(-c3ccc(Cl)cc3)n2)[C@H]1NC(C)=O` [Compound S12, (3R,4R,5S)-4-Acetamido-5-(((5-(4-chlorophenyl)-1,2,4-oxadiazol-3-yl)methyl)amino)-3-(pentan-3-yloxy)cyclohex-1-ene-1-carboxylic acid], for which the “% Inhibition (1 nM)” value at NA from A/H3N2 is 4.01 ± 5.9%.
On to `CCC(CC)O[C@@H]1C=C(C(=O)O)C[C@H](NC(=O)c2cnn(-c3ccc(C)cc3)c2)[C@H]1NC(C)=O` [OC-010], for which, on NA from A/H3N2, the “Inhibition rate, 1 μM” value worked out at 8.96% and the “Inhibition rate, 10 μM” value is recorded as 52.31%. This compound also displayed an IC50 against NA from A/H3N2 (Table 4, Example 34) of 43900 nM.
With `CCC(CC)O[C@@H]1C=C(C(=O)O)C[C@H](NCc2noc(-c3ccccc3)n2)[C@H]1NC(C)=O` [Compound S8, (3R,4R,5S)-4-acetamido-3-(pentan-3-yloxy)-5-(((5-phenyl-1,2,4-oxadiazol-3-yl)methyl)amino)cyclohex-1-ene-1-carboxylic acid], the “% Inhibition (1 nM)” value at NA from A/H3N2 is recorded as 0.0 ± 2.0%.
The same measure, in the same setting: for `CCC(CC)O[C@@H]1C=C(C(=O)O)C[C@H](NCc2cc(-c3ccccc3)on2)[C@H]1NC(C)=O` [Compound S24] the value was 1.6 ± 0.4%.
`CCOC(=O)C1=C[C@@H](OC(CC)CC)[C@H](NC(C)=O)[C@@H](N)C1` [oseltamivir]: in assay [1] ([…]), the plaque count entry was “not plaque count”. The plaque size result in assay [1] ([…], two concentrations (oseltamivir 0.1/0.2 nM, S7 1.9/3.8 nM, S22 1.6/3.2 nM)) was “reduction in plaque size”. Besides, at neuraminidase, the IC50 is 0.1 nM.
In the case of `CCC(CC)O[C@@H]1C=C(C(=O)O)C[C@H](NC(=O)c2cnn(Cc3ccccc3Cl)c2)[C@H]1NC(C)=O` [OC-005], at NA from A/H3N2, the “Inhibition rate, 1 μM” value was −1.46% and the “Inhibition rate, 10 μM” value was 18.88%.
Turning to `CCC(CC)O[C@@H]1C=C(C(=O)O)C[C@H](NC(=O)c2cnn(Cc3ccc(C(F)(F)F)cc3)c2)[C@H]1NC(C)=O` [OC-006], on NA from A/H3N2, the “Inhibition rate, 1 μM” value is given as −2.25% and the “Inhibition rate, 10 μM” value worked out at 21.72%.
`CCC(CC)O[C@@H]1C=C(C(=O)O)C[C@H](NCc2noc(-c3ccc(C(F)(F)F)cc3)n2)[C@H]1NC(C)=O` [Compound S2, (3R,4R,5S)-4-acetamido-3-(pentan-3-yloxy)-5-(((5-(4-(trifluoromethyl)phenyl)-1,2,4-oxadiazol-3-yl)methyl)amino)cyclohex-1-ene-1-carboxylic acid]: the “% Inhibition (1 nM)” value on NA from A/H3N2 was determined as 8.0 ± 1.7%.
In the case of `CCC(CC)O[C@@H]1C=C(C(=O)O)C[C@H](NC(=O)c2cc(C3CC3)nn2-c2cccc(C)c2)[C@H]1NC(C)=O` [OC-027], at NA from A/H3N2, the “Inhibition rate, 1 μM” value was determined as 0.70% and the “Inhibition rate, 10 μM” value turned out to be 31.53%.
In the same order, the values of `CCC(CC)O[C@@H]1C=C(C(=O)O)C[C@H](NC(=O)c2cnn(Cc3ccccc3)c2)[C@H]1NC(C)=O` [OC-001] are 7.71% and 32.02%.
For the compound `CCC(CC)O[C@@H]1C=C(C(=O)O)C[C@H](NC(=O)c2cnn(-c3ccc(Cl)cc3)c2)[C@H]1NC(C)=O` [OC-026], at NA from A/H3N2, the “Inhibition rate, 1 μM” value is −0.26% and the “Inhibition rate, 10 μM” value was 25.67%.
In the case of `CCC(CC)O[C@@H]1C=C(C(=O)O)C[C@H](NC(=O)c2cnn(Cc3ccc(OC)cc3)c2)[C@H]1NC(C)=O` [OC-004], at NA from A/H3N2, the “Inhibition rate, 1 μM” value is given as −0.21% and the “Inhibition rate, 10 μM” value came to 26.79%.
In the same order, the values of `CCC(CC)O[C@@H]1C=C(C(=O)O)C[C@H](NC(=O)c2cc(C3CC3)n(-c3ccc(C(F)(F)F)cc3)n2)[C@H]1NC(C)=O` [OC-020] are 8.26% and 44.47%.
For the compound `CCC(CC)O[C@@H]1C=C(C(=O)O)C[C@H](NCc2ccc(-c3ccsc3)o2)[C@H]1NC(C)=O` [Compound S20, (3R,4R,5S)-4-Acetamido-3-(pentan-3-yloxy)-5-(((5-(thiophen-3-yl)furan-2-yl)methyl)amino)cyclohex-1-ene-1-carboxylic acid], at NA from A/H3N2, the “% Inhibition (1 nM)” value was determined as 12.5 ± 2.3%.
Regarding `CCC(CC)O[C@@H]1C=C(C(=O)O)C[C@H](NCc2noc(-c3cccs3)n2)[C@H]1NC(C)=O` [Compound S1, (3R,4R,5S)-4-acetamido-3-(pentan-3-yloxy)-5-(((5-(thiophen-2-yl)-1,2,4-oxadiazol-3-yl)methyl)amino)cyclohex-1-ene-1-carboxylic acid], the “% Inhibition (1 nM)” value at NA from A/H3N2 turned out to be 0.0 ± 2.2%.
